Data published in PubChem BioAssay AID624167 (Sanford-Burnham Center for Chemical Genomics, 2012).

How the values were obtained:
Experiment in all cases: Peg3 promoter luciferase inhibitors, potency, dose response, cell-based, HeLa, CREF/GAPDH counter-screen panel (AID 624167)
PEG-3 [1] = molecular target: PEG-3 (UniProt Q6IN02); conditions: HeLa PEG-Prom luciferase reporter, overnight, CREF/GAPDH counter-screens, mean of runs
PEG-3 [2] = conditions: HeLa PEG-Prom luciferase reporter, overnight, CREF/GAPDH counter-screens
Rat fibroblasts (CREF) = conditions: CREF/GAPDH counter-screens
[3] = run 1, dose range 1, individual replicate IC50 per panel
[4] = run 2, dose range 1, individual replicate IC50 per panel

PEG-3 (UniProt Q6IN02), sequence (Q6IN02 whole entry, looked up): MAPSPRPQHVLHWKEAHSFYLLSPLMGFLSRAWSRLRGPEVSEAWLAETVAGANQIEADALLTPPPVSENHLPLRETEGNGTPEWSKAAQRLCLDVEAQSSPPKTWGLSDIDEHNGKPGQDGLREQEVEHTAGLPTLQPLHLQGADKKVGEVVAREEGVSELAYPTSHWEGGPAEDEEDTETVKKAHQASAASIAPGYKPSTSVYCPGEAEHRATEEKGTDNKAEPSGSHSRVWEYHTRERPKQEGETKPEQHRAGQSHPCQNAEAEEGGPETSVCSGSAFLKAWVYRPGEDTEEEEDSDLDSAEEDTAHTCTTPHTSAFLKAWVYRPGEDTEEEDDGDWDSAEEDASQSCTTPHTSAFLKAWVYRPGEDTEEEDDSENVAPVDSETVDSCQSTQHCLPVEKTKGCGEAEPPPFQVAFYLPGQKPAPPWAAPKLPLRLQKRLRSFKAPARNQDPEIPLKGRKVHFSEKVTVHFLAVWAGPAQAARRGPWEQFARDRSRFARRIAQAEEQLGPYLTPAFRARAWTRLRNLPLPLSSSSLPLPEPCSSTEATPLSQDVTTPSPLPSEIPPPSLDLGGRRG

`Cc1ccccc1OCC(O)CNC1CCC(NCC(O)COc2ccccc2C)CC1` (centres undefined) showed an IC50 (PEG-3 [1]) of 7150 nM, an IC50 (PEG-3 [2]; [3]) of 9800 nM and an IC50 (PEG-3 [2]; [4]) of 4490 nM. The IC50 (Rat fibroblasts (CREF); mean of runs) was 10800 nM, the IC50 (Rat fibroblasts (CREF); [3]) was 8940 nM and the IC50 (Rat fibroblasts (CREF); [4]) was 12600 nM.

`O=C(O)c1cccc(COc2ccc(CO)cc2Cl)c1` showed an IC50 (PEG-3 [1]) of 391 nM, an IC50 (PEG-3 [2]; [3]) of 202 nM and an IC50 (PEG-3 [2]; [4]) of 581 nM. For the same molecule, the IC50 (Rat fibroblasts (CREF); mean of runs) was 8350 nM, the IC50 (Rat fibroblasts (CREF); [3]) was 8630 nM and the IC50 (Rat fibroblasts (CREF); [4]) was 8080 nM.

`COc1ccc(S(=O)(=O)/N=C2\C=C(Nc3ccc(O)cc3)C(=O)c3ccccc32)cc1` was tested, and the IC50 (PEG-3 [1]) was 2580 nM, the IC50 (PEG-3 [2]; [3]) was 2500 nM and the IC50 (PEG-3 [2]; [4]) was 2650 nM. It also gave an IC50 (Rat fibroblasts (CREF); mean of runs) of 1630 nM, an IC50 (Rat fibroblasts (CREF); [3]) of 1380 nM and an IC50 (Rat fibroblasts (CREF); [4]) of 1880 nM.

`O=C(Nc1nc2cc3c(cc2s1)OCCO3)C1=COCCO1` showed an IC50 (PEG-3 [1]) of 526 nM, an IC50 (PEG-3 [2]; [3]) of 431 nM and an IC50 (PEG-3 [2]; [4]) of 622 nM. The IC50 (Rat fibroblasts (CREF); mean of runs) was 924 nM, the IC50 (Rat fibroblasts (CREF); [3]) was 575 nM and the IC50 (Rat fibroblasts (CREF); [4]) was 1270 nM.

For `O=C(Nc1cc(S(=O)(=O)N2CCOCC2)ccc1Cl)c1cc([N+](=O)[O-])ccc1Cl`, the IC50 (PEG-3 [1]) was 8460 nM, the IC50 (PEG-3 [2]; [3]) was 14800 nM and the IC50 (PEG-3 [2]; [4]) was 2160 nM. The IC50 (Rat fibroblasts (CREF); mean of runs) was 19000 nM, the IC50 (Rat fibroblasts (CREF); [3]) was 31800 nM and the IC50 (Rat fibroblasts (CREF); [4]) was 6140 nM.

`COC1=C(Br)C(=O)c2ncccc2C1=O` gave an IC50 (PEG-3 [1]) of 6650 nM, an IC50 (PEG-3 [2]; [3]) of 8010 nM and an IC50 (PEG-3 [2]; [4]) of 5300 nM. It also gave an IC50 (Rat fibroblasts (CREF); mean of runs) of 14200 nM, an IC50 (Rat fibroblasts (CREF); [3]) of 8910 nM and an IC50 (Rat fibroblasts (CREF); [4]) of 19400 nM.

For `CCOc1ccc(OCc2cccc(C(=O)O)c2)cc1`, the IC50 (PEG-3 [1]) was 359 nM, the IC50 (PEG-3 [2]; [3]) was 232 nM and the IC50 (PEG-3 [2]; [4]) was 487 nM. For the same molecule, the IC50 (Rat fibroblasts (CREF); mean of runs) was 3740 nM, the IC50 (Rat fibroblasts (CREF); [3]) was 3880 nM and the IC50 (Rat fibroblasts (CREF); [4]) was 3600 nM.

`O=c1c2ccccc2cnn1-c1nc2ccccc2[nH]1` showed an IC50 (PEG-3 [1]) of 723 nM, an IC50 (PEG-3 [2]; [3]) of 686 nM and an IC50 (PEG-3 [2]; [4]) of 760 nM. The IC50 (Rat fibroblasts (CREF); mean of runs) was 546 nM, the IC50 (Rat fibroblasts (CREF); [3]) was 475 nM and the IC50 (Rat fibroblasts (CREF); [4]) was 617 nM.

`COC(=O)c1c(N)sc(C(=O)NCCc2ccccc2)c1C` was tested, and the IC50 (PEG-3 [1]) was 2460 nM, the IC50 (PEG-3 [2]; [3]) was 2220 nM and the IC50 (PEG-3 [2]; [4]) was 2690 nM. It also gave an IC50 (Rat fibroblasts (CREF); mean of runs) of 3880 nM, an IC50 (Rat fibroblasts (CREF); [3]) of 4380 nM and an IC50 (Rat fibroblasts (CREF); [4]) of 3380 nM.

Work on `Cc1ccc2nc(-c3ccc4c(c3)OCCO4)cn2c1` yielded an IC50 (PEG-3 [1]) of 624 nM, an IC50 (PEG-3 [2]; [3]) of 840 nM and an IC50 (PEG-3 [2]; [4]) of 409 nM. For the same molecule, the IC50 (Rat fibroblasts (CREF); mean of runs) was 731 nM, the IC50 (Rat fibroblasts (CREF); [3]) was 691 nM and the IC50 (Rat fibroblasts (CREF); [4]) was 771 nM.

With `O=C(NCCc1ccccc1F)c1ccc2c(c1)OCCO2` the IC50 (PEG-3 [1]) was 881 nM, the IC50 (PEG-3 [2]; [3]) was 1020 nM and the IC50 (PEG-3 [2]; [4]) was 740 nM. It also gave an IC50 (Rat fibroblasts (CREF); mean of runs) of 1180 nM, an IC50 (Rat fibroblasts (CREF); [3]) of 1070 nM and an IC50 (Rat fibroblasts (CREF); [4]) of 1300 nM.

For `COc1cccc(/C=N/NC(=O)c2ccc(-c3ccccc3)cc2)c1O`, the IC50 (PEG-3 [1]) was 2530 nM, the IC50 (PEG-3 [2]; [3]) was 3330 nM and the IC50 (PEG-3 [2]; [4]) was 1730 nM. It also gave an IC50 (Rat fibroblasts (CREF); mean of runs) of 24900 nM, an IC50 (Rat fibroblasts (CREF); [3]) of 19600 nM and an IC50 (Rat fibroblasts (CREF); [4]) of 30200 nM.

`CCOc1ccc(NC(=O)Nc2cccc(C(=O)O)c2)cc1` gave an IC50 (PEG-3 [1]) of 3240 nM, an IC50 (PEG-3 [2]; [3]) of 2900 nM and an IC50 (PEG-3 [2]; [4]) of 3580 nM. For the same molecule, the IC50 (Rat fibroblasts (CREF); mean of runs) was 4090 nM, the IC50 (Rat fibroblasts (CREF); [3]) was 3070 nM and the IC50 (Rat fibroblasts (CREF); [4]) was 5100 nM.

Molecule `C=CCn1c(C)cc(C(=O)CN2C(=O)c3ccccc3S2(=O)=O)c1C` has an IC50 (PEG-3 [1]) of 550 nM, an IC50 (PEG-3 [2]; [3]) of 795 nM and an IC50 (PEG-3 [2]; [4]) of 306 nM. The IC50 (Rat fibroblasts (CREF); mean of runs) was 2710 nM, the IC50 (Rat fibroblasts (CREF); [3]) was 1680 nM and the IC50 (Rat fibroblasts (CREF); [4]) was 3730 nM.

For `CCCCCN1C=CC(=C2C(=O)c3ccccc3C2=O)C=C1`, the IC50 (PEG-3 [1]) was 1240 nM, the IC50 (PEG-3 [2]; [3]) was 1080 nM and the IC50 (PEG-3 [2]; [4]) was 1400 nM. The IC50 (Rat fibroblasts (CREF); mean of runs) was 729 nM, the IC50 (Rat fibroblasts (CREF); [3]) was 371 nM and the IC50 (Rat fibroblasts (CREF); [4]) was 1090 nM.

Work on `Cc1c(C)c2ccc(OCC(=O)Nc3ccccn3)c(C)c2oc1=O` yielded an IC50 (PEG-3 [1]) of 1200 nM, an IC50 (PEG-3 [2]; [3]) of 1640 nM and an IC50 (PEG-3 [2]; [4]) of 767 nM. The IC50 (Rat fibroblasts (CREF); mean of runs) was 1650 nM, the IC50 (Rat fibroblasts (CREF); [3]) was 1440 nM and the IC50 (Rat fibroblasts (CREF); [4]) was 1860 nM.

`CN(C)c1ccc(/C=C2\SC(=O)N(CCc3nnc(N)s3)C2=O)cc1` showed an IC50 (PEG-3 [1]) of 2960 nM, an IC50 (PEG-3 [2]; [3]) of 3340 nM and an IC50 (PEG-3 [2]; [4]) of 2580 nM. It also gave an IC50 (Rat fibroblasts (CREF); mean of runs) of 3180 nM, an IC50 (Rat fibroblasts (CREF); [3]) of 1610 nM and an IC50 (Rat fibroblasts (CREF); [4]) of 4750 nM.

In the case of `O=C(CN1C(=O)c2ccccc2S1(=O)=O)c1ccc2c(c1)OCCCO2`, the IC50 (PEG-3 [1]) is reported as 590 nM, the IC50 (PEG-3 [2]; [3]) is reported as 770 nM and the IC50 (PEG-3 [2]; [4]) is reported as 411 nM. The IC50 (Rat fibroblasts (CREF); mean of runs) was 1280 nM, the IC50 (Rat fibroblasts (CREF); [3]) was 1070 nM and the IC50 (Rat fibroblasts (CREF); [4]) was 1480 nM.

`Cc1ccc(C(=O)Nc2cnc3ccccc3c2)cc1` was tested, and the IC50 (PEG-3 [1]) was 499 nM, the IC50 (PEG-3 [2]; [3]) was 416 nM and the IC50 (PEG-3 [2]; [4]) was 582 nM. It also gave an IC50 (Rat fibroblasts (CREF); mean of runs) of 3890 nM, an IC50 (Rat fibroblasts (CREF); [3]) of 3520 nM and an IC50 (Rat fibroblasts (CREF); [4]) of 4260 nM.
